Measurements reported in patent US10479795B2 (Incyte Corporation, priority 2016, dated 2019).
Where a name gives a salt, the structure may show the parent alone. Read-outs that look alike come from different tables or passages of the source.

What was measured:
[1] = test system: Phosphorylated Ribosomal Protein S6 (RPS6); experiment: THP-1 RPS6 ELISA Assay; type: cell-based, Human; conditions: THP-1 cells, read-out: PI3Kγ_THP1_RPS6_ELISA IC50
Summary of the method: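 Serum-starved THP-1 cells were preincubated with a concentration range of compound for 2 h at 37 °C, then stimulated with 10 nM MCP-1 for 15 min. Phospho-RPS6 in lysates was quantified by ELISA at 450 nm. IC50 came from percent inhibition versus log inhibitor concentration.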

[2] = biological target: PI3Kγ (p110γ) Recombinant Human Protein (Homo sapiens (Human), UniProt P48736); experiment: PI3K-γ Scintillation Proximity Assay; type: biochemical; conditions: read-out: PI3Kγ IC50
Summary of the method: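 Recombinant human p110γ assayed at room temperature in 20 mM MOPS pH 6.7, 10 mM MgCl2, 5 mM DTT, 0.03% CHAPS, 2% DMSO, with 20 μM PIP2 and 2 μM ATP plus [γ-33P]ATP. Product captured on WGA SPA beads overnight and counted; IC50 fitted from % of solvent-control activity versus log inhibitor concentration.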

[3] = biological target: PI3Kδ (p110δ/p85α) Recombinant Human Protein (Homo sapiens (Human), UniProt O00329); experiment: PI3Kδ Scintillation Proximity Assay; type: biochemical
Summary of the method: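 Recombinant human p110δ/p85α (3.4 nM) phosphorylates 20 μM di-octanoyl PIP2 using 2 μM ATP spiked with [γ-33P]ATP, 120 min, room temperature, pH 6.7, 2% DMSO. Product measured by scintillation proximity; IC50 from dose-response fit.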

Sequence of PI3Kγ (p110γ) Recombinant Human Protein (P48736 whole entry): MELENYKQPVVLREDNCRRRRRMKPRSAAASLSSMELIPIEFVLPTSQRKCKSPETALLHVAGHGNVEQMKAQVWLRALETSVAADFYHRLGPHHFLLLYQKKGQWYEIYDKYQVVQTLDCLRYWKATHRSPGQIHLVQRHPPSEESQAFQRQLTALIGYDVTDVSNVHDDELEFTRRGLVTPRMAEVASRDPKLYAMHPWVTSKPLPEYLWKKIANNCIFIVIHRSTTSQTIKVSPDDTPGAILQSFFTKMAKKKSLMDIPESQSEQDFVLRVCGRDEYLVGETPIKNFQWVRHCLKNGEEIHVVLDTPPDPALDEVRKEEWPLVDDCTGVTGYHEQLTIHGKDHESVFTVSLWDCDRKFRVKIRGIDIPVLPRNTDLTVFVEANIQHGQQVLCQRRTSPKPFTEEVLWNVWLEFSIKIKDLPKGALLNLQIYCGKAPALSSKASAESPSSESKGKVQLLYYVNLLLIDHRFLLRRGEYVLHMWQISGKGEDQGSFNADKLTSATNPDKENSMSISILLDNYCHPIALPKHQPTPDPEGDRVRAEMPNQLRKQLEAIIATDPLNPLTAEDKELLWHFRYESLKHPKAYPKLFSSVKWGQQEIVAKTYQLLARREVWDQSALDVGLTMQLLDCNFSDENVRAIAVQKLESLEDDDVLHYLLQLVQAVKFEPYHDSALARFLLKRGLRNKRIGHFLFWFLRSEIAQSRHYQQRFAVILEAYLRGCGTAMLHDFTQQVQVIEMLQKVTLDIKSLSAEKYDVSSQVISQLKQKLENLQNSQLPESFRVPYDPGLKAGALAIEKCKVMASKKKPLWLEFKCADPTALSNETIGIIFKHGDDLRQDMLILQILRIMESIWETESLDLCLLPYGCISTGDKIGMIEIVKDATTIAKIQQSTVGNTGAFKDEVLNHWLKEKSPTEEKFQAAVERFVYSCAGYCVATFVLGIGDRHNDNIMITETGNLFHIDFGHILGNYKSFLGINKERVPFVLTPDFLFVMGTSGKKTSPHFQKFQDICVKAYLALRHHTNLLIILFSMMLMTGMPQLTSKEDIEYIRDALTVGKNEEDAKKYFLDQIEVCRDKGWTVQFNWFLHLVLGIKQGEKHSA
Sequence of PI3Kδ (p110δ/p85α) Recombinant Human Protein (O00329 whole entry): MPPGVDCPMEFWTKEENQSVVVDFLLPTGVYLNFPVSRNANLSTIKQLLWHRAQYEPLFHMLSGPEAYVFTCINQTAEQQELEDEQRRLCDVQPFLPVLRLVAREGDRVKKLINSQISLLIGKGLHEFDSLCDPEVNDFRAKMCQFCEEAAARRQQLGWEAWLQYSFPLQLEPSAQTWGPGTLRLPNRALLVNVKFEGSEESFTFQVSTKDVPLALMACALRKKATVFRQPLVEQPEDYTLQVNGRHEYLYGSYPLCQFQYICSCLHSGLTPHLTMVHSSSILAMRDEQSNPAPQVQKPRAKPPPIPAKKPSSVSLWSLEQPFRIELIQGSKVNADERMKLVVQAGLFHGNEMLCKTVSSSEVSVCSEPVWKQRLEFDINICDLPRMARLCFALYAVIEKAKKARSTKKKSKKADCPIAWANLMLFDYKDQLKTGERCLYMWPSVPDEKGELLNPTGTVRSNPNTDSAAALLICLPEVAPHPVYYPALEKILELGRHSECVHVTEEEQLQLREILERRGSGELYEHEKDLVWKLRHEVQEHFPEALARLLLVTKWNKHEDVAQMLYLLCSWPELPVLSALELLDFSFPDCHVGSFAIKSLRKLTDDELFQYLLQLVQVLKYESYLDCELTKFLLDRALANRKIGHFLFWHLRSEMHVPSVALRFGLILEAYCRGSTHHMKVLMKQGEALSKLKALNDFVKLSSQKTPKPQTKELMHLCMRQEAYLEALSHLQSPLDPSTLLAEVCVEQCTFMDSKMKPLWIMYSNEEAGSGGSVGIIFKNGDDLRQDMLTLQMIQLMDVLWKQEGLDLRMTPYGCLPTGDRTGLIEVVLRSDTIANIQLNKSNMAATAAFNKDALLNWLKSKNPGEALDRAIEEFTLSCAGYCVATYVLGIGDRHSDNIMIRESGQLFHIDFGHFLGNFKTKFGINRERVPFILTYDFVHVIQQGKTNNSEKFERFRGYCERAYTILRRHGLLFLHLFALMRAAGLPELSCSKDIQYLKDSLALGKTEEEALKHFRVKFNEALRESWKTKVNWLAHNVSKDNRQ
Sequence of PI3Kδ (p110δ/p85α) Recombinant Human Protein (P27986 whole entry partner): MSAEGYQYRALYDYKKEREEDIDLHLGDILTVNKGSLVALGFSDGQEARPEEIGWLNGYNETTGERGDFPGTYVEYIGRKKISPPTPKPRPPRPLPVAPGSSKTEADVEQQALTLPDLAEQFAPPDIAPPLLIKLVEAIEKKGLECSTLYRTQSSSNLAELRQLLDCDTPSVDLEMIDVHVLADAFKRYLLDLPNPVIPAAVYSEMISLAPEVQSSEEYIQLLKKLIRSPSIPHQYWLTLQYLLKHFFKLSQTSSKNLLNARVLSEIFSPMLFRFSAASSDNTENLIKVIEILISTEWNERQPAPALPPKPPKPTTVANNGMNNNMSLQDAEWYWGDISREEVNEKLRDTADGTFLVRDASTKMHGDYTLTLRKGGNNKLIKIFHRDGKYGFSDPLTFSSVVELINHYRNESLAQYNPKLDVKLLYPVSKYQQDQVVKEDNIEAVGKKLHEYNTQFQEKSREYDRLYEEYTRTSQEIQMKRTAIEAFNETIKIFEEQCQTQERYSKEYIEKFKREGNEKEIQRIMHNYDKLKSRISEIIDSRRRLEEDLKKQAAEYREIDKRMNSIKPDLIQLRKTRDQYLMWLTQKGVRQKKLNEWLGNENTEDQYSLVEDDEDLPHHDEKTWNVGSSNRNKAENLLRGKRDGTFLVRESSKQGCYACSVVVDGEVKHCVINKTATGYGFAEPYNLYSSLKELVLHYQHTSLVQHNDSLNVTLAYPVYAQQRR

| IC50 ([1]; Homo sapiens) | IC50 [2] | IC50 [3] | IC50 [1] | Compound |
| --- | --- | --- | --- | --- |
| < 100 nM | < 100 nM | < 100 nM | – | Cc1ccc(S(=O)(=O)N2CCCC(N)C2)cc1-c1cnc2c(N)nc(C(F)(F)F)cn12 (stereo not drawn) [Example 516, 3-(5-((3-Aminopiperidin-1-yl)sulfonyl)-2-methylphenyl)-6-(trifluoromethyl)imidazo[1,2-a]pyrazin-8-amine trifluoroacetate] |
| > 1000 nM | < 100 nM | 100 to 500 nM | – | Cc1ccc(S(=O)(=O)N2CC3(COC3)C2)cc1-c1cnc2c(N)ncnn12 [Example 143, 7-(5-((2-oxa-6-azaspiro[3.3]heptan-6-yl)sulfonyl)-2-methylphenyl)imidazo[2,1-f][1,2,4]triazin-4-amine] |
| – | < 100 nM | 100 to 500 nM | 100 to 500 nM | Cc1ccc(S(=O)(=O)N[C@H]2CC[C@](C)(O)CC2)cc1-c1cnc2c(N)nc(C(F)(F)F)nn12 [Example 327, 3-(4-Amino-2-(trifluoromethyl)imidazo[1,2-f][1,2,4]triazin-7-yl)-N-((1r,4r)-4-hydroxy-4-methylcyclohexyl)-4-methylbenzenesulfonamide trifluoroacetate salt] |
| – | < 100 nM | 100 to 500 nM | < 100 nM | Cc1ccc(S(=O)(=O)N[C@H]2CC[C@H](CO)OC2)cc1-c1cnc2c(N)nc(C(F)(F)F)cn12 [Example 311] |
| – | < 100 nM | 100 to 500 nM | 500 to 1000 nM | Cc1ccc(S(=O)(=O)NC23CCC(CO)(C2)C3)cc1-c1cnc2c(N)ncnn12 [Example 107, 3-(4-Aminoimidazo[1,2-f][1,2,4]triazin-7-yl)-N-(4-(hydroxymethyl)bicyclo[2.1.1]hexan-1-yl)-4-methylbenzenesulfonamide trifluoroacetate salt] |
| – | < 100 nM | 100 to 500 nM | 100 to 500 nM | Cc1ccc(S(=O)(=O)NCC2(O)CNC2)cc1-c1cnc2c(N)nc(C(F)(F)F)nn12 [Example 335, 3-(4-Amino-2-(trifluoromethyl)imidazo[1,2-f][1,2,4]triazin-7-yl)-N-((3-hydroxyazetidin-3-yl)methyl)-4-methylbenzenesulfonamide trifluoroacetate salt] |
| > 1000 nM | < 100 nM | 500 to 2000 nM | – | Cc1ccc(S(=O)(=O)CCC(C)O)cc1-c1cnc2c(N)nc(C(F)(F)F)cn12 (stereo not drawn) [Example 494, 4-((3-(8-Amino-6-(trifluoromethyl)imidazo[1,2-a]pyrazin-3-yl)-4-methylphenyl)sulfonyl)butan-2-ol] |
| 100 to 500 nM | < 100 nM | 100 to 500 nM | – | Cc1ccc(S(=O)(=O)N2CC3(C2)CC(O)(C(F)(F)F)C3)cc1-c1cnc2c(N)ncnn12 [Example 141, 2-((3-(4-aminoimidazo[2,1-f][1,2,4]triazin-7-yl)-4-methylphenyl)sulfonyl)-6-(trifluoromethyl)-2-azaspiro[3.3]heptan-6-ol] |
| 100 to 500 nM | < 100 nM | 100 to 500 nM | – | Cc1ccc(S(=O)(=O)NC23COC(CO)(C2)C3)cc1-c1cnc2c(N)nc(C(F)(F)F)cn12 [Example 428, 3-(8-amino-6-(trifluoromethyl)imidazo[1,2-a]pyrazin-3-yl)-N-(1-(hydroxymethyl)-2-oxabicyclo[2.1.1]hexan-4-yl)-4-methylbenzenesulfonamide trifluoroacetate salt] |
| 500 to 1000 nM | < 100 nM | 100 to 500 nM | – | Cc1ccc(S(=O)(=O)NC23CCC(C(N)=O)(C2)C3)cc1-c1cnc2c(N)nc(C(F)(F)F)cn12 [Example 291, 4-(3-(8-Amino-6-(trifluoromethyl)imidazo[1,2-a]pyrazin-3-yl)-4-methylphenylsulfonamido)bicyclo[2.1.1]hexane-1-carboxamide trifluoroacetate salt] |
| 100 to 500 nM | < 100 nM | 100 to 500 nM | – | CNC(=O)c1cn2c(-c3cc(S(=O)(=O)NCC4CC(F)(F)C4)ccc3C)cnc2c(N)n1 [Example 445, 8-Amino-3-(5-(N-((3,3-difluorocyclobutyl)methyl)sulfamoyl)-2-methylphenyl)-N-methylimidazo[1,2-a]pyrazine-6-carboxamide trifluoroacetate salt] |
| 500 to 1000 nM | < 100 nM | 100 to 500 nM | – | Cc1ccc(S(=O)(=O)N(C)[C@H]2CC[C@H](O)CC2)cc1-c1cnc2c(N)nccn12 [Example 52, 3-(8-Aminoimidazo[1,2-a]pyrazin-3-yl)-N-(trans-4-hydroxycyclohexyl)-N,4-dimethylbenzenesulfonamide] |
| 500 to 1000 nM | < 100 nM | 500 to 2000 nM | – | Cc1ccc(S(=O)(=O)N2CCCC23CCOC3)cc1-c1cnc2c(N)ncnn12 (stereo not drawn) [Example 208, 7-(5-((7-Oxa-1-azaspiro[4.4]nonan-1-yl)sulfonyl)-2-methylphenyl)imidazo[2,1-f][1,2,4]triazin-4-amine] |
| 100 to 500 nM | < 100 nM | > 2000 nM | – | Cc1ccc(S(=O)(=O)N[C@H]2C[C@H](O)C2)cc1-c1cnc2c(N)ncnn12 [Example 71, 3-(4-Aminoimidazo[2,1-f][1,2,4]triazin-7-yl)-N-(trans-3-hydroxycyclobutyl)-4-methylbenzenesulfonamide] |
| 500 to 1000 nM | < 100 nM | < 100 nM | – | [2H]C([2H])([2H])c1ccc(S(=O)(=O)NC23CCC(O)(C2)C3)cc1-c1cnc2c(N)nc(C)cn12 [Example 384, 3-(8-Amino-6-methylimidazo[1,2-a]pyrazin-3-yl)-N-(4-hydroxybicyclo[2.1.1]hexan-1-yl)-4-(methyl-d3)benzenesulfonamide] |
| 100 to 500 nM | < 100 nM | 100 to 500 nM | – | Nc1nc(C(F)(F)F)cn2c(-c3cccc(S(=O)(=O)NC45CCC(CO)(C4)C5)c3)cnc12 [Example 394, 3-(8-Amino-6-(trifluoromethyl)imidazo[1,2-a]pyrazin-3-yl)-N-(4-(hydroxymethyl)bicyclo[2.1.1]hexan-1-yl)benzenesulfonamide trifluoroacetate salt] |
| – | < 100 nM | 100 to 500 nM | 100 to 500 nM | Cc1nc(N)c2ncc(-c3cc(S(=O)(=O)N[C@H]4C[C@H](C#N)C4)ccc3C)n2n1 [Example 272, 3-(4-amino-2-methylimidazo[1,2-f][1,2,4]triazin-7-yl)-N-((1r,3r)-3-cyanocyclobutyl)-4-methylbenzenesulfonamide trifluoroacetate salt] |
| > 1000 nM | < 100 nM | > 2000 nM | – | Cc1ccc(S(=O)(=O)NCCCO)cc1-c1cnc2c(N)ncnn12 [Example 65, 3-(4-Aminoimidazo[2,1-f][1,2,4]triazin-7-yl)-N-(3-hydroxypropyl)-4-methylbenzenesulfonamide] |
| < 100 nM | < 100 nM | < 100 nM | – | Cc1nc(N)c2ncc(-c3cc(S(=O)(=O)N[C@H]4CC[C@H](CC#N)OC4)c(Cl)cc3C)n2n1 [Example 389, 5-(4-amino-2-methylimidazo[2,1-f][1,2,4]triazin-7-yl)-2-chloro-N-((3S,6R)-6-(cyanomethyl)tetrahydro-2H-pyran-3-yl)-4-methylbenzenesulfonamide] |
| – | < 100 nM | < 100 nM | < 100 nM | Cc1nc(N)c2ncc(-c3cc(S(=O)(=O)NC45CCC(C#N)(C4)C5)ccc3C)n2n1 [Example 265, 3-(4-Amino-2-methylimidazo[1,2-f][1,2,4]triazin-7-yl)-N-(4-cyanobicyclo[2.1.1]hexan-1-yl)-4-methylbenzenesulfonamide trifluoroacetate salt] |
| > 1000 nM | < 100 nM | 500 to 2000 nM | – | Cc1ccc(S(=O)(=O)NC23CC(c4nnn[nH]4)(C2)C3)cc1-c1cnc2c(N)nc(C(F)(F)F)cn12 [Example 292, N-(3-(1H-Tetrazol-5-yl)bicyclo[1.1.1]pentan-1-yl)-3-(8-amino-6-(trifluoromethyl)imidazo[1,2-a]pyrazin-3-yl)-4-methylbenzenesulfonamide trifluoroacetate salt] |
| – | < 100 nM | 500 to 2000 nM | 100 to 500 nM | Cc1ccc(S(=O)(=O)N[C@H]2C[C@](O)(C(F)(F)F)C2)cc1-c1cnc2c(N)ncnn12 [Example 140, 3-(4-aminoimidazo[2,1-f][1,2,4]triazin-7-yl)-N-((1S,3S)-3-hydroxy-3-(trifluoromethyl)cyclobutyl)-4-methylbenzenesulfonamide] |
| 100 to 500 nM | < 100 nM | 100 to 500 nM | – | O=C(O)C(F)(F)F.[2H]C([2H])([2H])c1ccc(S(=O)(=O)NC23CCC(CO)(C2)C3)cc1-c1cnc2c(N)nc(C(F)(F)F)cn12 [Example 390, 3-(8-Amino-6-(trifluoromethyl)imidazo[1,2-a]pyrazin-3-yl)-N-(4-(hydroxymethyl)bicyclo[2.1.1]hexan-1-yl)-4-(methyl-d3)benzenesulfonamide trifluoroacetate salt] |

| Compound | IC50 ([1]; Homo sapiens) | IC50 [2] | IC50 [3] | IC50 [1] |
| --- | --- | --- | --- | --- |
| Cc1cn2c(-c3ccc(Cl)c(S(=O)(=O)N[C@H]4CC[C@](C)(O)CC4)c3)cnc2c(N)n1 [Example 385, 5-(8-amino-6-methylimidazo[1,2-a]pyrazin-3-yl)-2-chloro-N-((1r,4r)-4-hydroxy-4-methylcyclohexyl)benzenesulfonamide] | – | < 100 nM | < 100 nM | 100 to 500 nM |
